According to patent publication US12209140B2, “Therapeutics for the treatment of glaucoma” (Mayo Foundation for Medical Education and Research, priority 2014, dated 2025):
“Also recorded” adds a separate entry of the source.

Columns and labels:
[1] = system: normotensive C57BL/6 mice; test: intraocular pressure change in normotensive mice after treatment; assay type: in vivo, mouse; conditions: for combination treatment in mice with CKL/CKLP1 and prostaglandin analog LFA (FIG. 2 values, pressure change): alone or combined with latanoprost free acid, additive effects; for IOP lowering in the presence of Erk1/2 inhibitor U0126: mice (n=10), CKLP1+LFA+U0126
Experimental: FIG. 1B is a graph of the change in C57BL/6 mice intraocular pressure following treatment with cromakalim in DMSO or CKLP1 in aqueous carrier. FIG. 2 is a graph of the combination treatment in mice with […]1 and prostaglandin showing additive effects. CKL: -12.77±2.38, […]1: -16.11±2.61, CKLP1+LFA: -26.06±2.98. FIG. 1A is a graph of pressure readings obtained from a pair of human anterior eye segments where one eye was treated with a KATP channel opener prodrug (CKLP1) while the fellow anterior segment was treated with vehicle alone. […] FIG. 1B is a graph of pressure change obtained in normotensive C57BL/6 mice following treatment with parent (CKL) and prodrug (CKLP1). […] FIG. 3 is a graph showing the treatment with various forms of CKL. FIG. 4 is a graph showing the treatment of rabbits (n=5) with CKL-P1 in PBS, optically active isomer. FIG. 5 is a graph showing the treatment with ent-CKLP1(5 mM).

[2] = system: rat cortical neurons; test: H2O2 oxidative stress in rat cortical neurons, lactate dehydrogenase assayed; assay type: cell-based; conditions: 75 μM H2O2 for 24 hours with and without CKLP1
Description: The present invention also provides a CKLP1 composition used to treat neurons; a CKLP1 composition used for neuroprotection; a method of neuroprotection using a CKLP1 composition; a method of treating neurons using a CKLP1 composition; and methods and compositions for the treatment of ocular hypertension, blindness and loss of vision using a CKLP1 composition. The claimed CKLP1 composition provides neuroprotective properties. […] Therefore, CKLP1 and other prodrugs (as disclosed herein) may represent the first in class treatment for glaucoma that can treat the main risk factor (elevated intraocular pressure) and also the sight of damage (optic nerve).

[3] = system: eyes; test: activity in vivo in eyes
Description: The enantiomer of CKLP1 is referred to as “ent-CKLP1”. CKLP1 can be synthesized from levcromakalim while ent-CKLP1 can be synthesized from (+)-cromakalim.

[4] = system: human anterior eye segments; test: human anterior segment perfusion organ culture (ex vivo human eye), pressure readings
Experimental: FIG. 1A is a graph of pressure readings obtained from a pair of human anterior eye segments where one eye was treated with a KATP channel opener prodrug (CKLP1) while the fellow anterior segment was treated with vehicle alone. […] FIG. 1B is a graph of pressure change obtained in normotensive C57BL/6 mice following treatment with parent (CKL) and prodrug (CKLP1).

[5] = system: rabbits; test: treatment of rabbits (intraocular pressure model); assay type: in vivo
Experimental: FIG. 4 is a graph showing the treatment of rabbits with CKL-P1 in PBS, optically active isomer. FIG. 3 is a graph showing the treatment with various forms of CKL. FIG. 4 is a graph showing the treatment of rabbits (n=5) with CKL-P1 in PBS, optically active isomer. FIG. 5 is a graph showing the treatment with ent-CKLP1(5 mM).

| SMILES | combination treatment in mice with CKL/CKLP1 and prostaglandin analog LFA (FIG. 2 values, pressure change) [1] | IOP lowering in the presence of Erk1/2 inhibitor U0126 [1] | activity in vivo in eyes [3] | also measured |
| --- | --- | --- | --- | --- |
| CC1(C)Oc2ccc(C#N)cc2C(N2CCCC2=O)C1O (centres unmarked) [CKL, cromakalim, reference compound] | −12.77±2.38 |  |  |  |
| CC1(C)Oc2ccc(C#N)cc2[C@@H](N2CCCC2=O)[C@@H]1OP(=O)(O)O [CKLP1] | −16.11±2.61 | not able to lower pressure | active | biological activity in normotensive mouse model ([1]; mouse): good activity; H2O2 oxidative stress (lactate dehydrogenase levels) [2]: inhibited H2O2 oxidative stress; pressure in human anterior segment perfusion organ culture ([4]; CKLP1 2 μM, fellow anterior segment treated with vehicle alone): reduction of pressure; also recorded: reduces pressure; activity in ex vivo human eyeball model ([4]; ex vivo human eyeball): good activity; activity in rabbit model [5]: good activity |
| O=C(O)CCC/C=C\C[C@@H]1[C@@H](CC[C@@H](O)CCc2ccccc2)[C@H](O)C[C@@H]1O [LFA, latanoprost free acid, reference compound] |  | can lower IOP |  |  |
| CC1(C)Oc2ccc(C#N)cc2[C@H](N2CCCC2=O)[C@H]1OP(=O)(O)O [ent-CKLP1] |  |  | active |  |
